{"source": "paper PMC2662861", "about": "“An unexpected phosphate binding site in Glyceraldehyde 3-Phosphate Dehydrogenase: Crystal structures of apo, holo and ternary complex of Cryptosporidium parvum enzyme” (BMC Structural Biology, 2009)", "target": "T1, CpGAPDH (Cryptosporidium parvum glyceraldehyde 3-phosphate dehydrogenase) (Cryptosporidium parvum, UniProt Q7YYQ9)", "T1 construct": "gene cgd6_3790; recombinant, N-terminal hexa-histidine tag kept, expressed in E. coli; homotetramer", "T1 sequence (Q7YYQ9 1-339)": "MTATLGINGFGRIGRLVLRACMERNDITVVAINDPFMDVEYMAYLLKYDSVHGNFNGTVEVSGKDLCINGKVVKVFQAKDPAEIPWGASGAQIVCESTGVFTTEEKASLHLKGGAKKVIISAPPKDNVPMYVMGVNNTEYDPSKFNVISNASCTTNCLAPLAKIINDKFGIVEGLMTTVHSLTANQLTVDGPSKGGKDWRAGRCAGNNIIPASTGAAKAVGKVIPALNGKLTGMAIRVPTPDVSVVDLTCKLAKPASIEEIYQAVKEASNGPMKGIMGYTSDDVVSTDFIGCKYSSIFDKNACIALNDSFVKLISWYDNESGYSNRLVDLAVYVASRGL", "experiment": "X-ray crystal structure, […] Å, co-crystallized", "assay_type": "binding", "conditions": "holoenzyme; 2 mM NAD; pH 7.5; NAD in all four subunits"}
{"compound": "NC(=O)c1ccc[n+]([C@@H]2O[C@H](COP(=O)(O)OP(=O)(O)OC[C@H]3O[C@@H](n4cnc5c(N)ncnc54)[C@H](O)[C@@H]3O)[C@@H](O)[C@H]2O)c1", "note": "[NAD]", "values": [{"measurement": "X-ray crystal structure, 2.0 Å, co-crystallized", "result": "The holoenzyme form of CpGAPDH contains one NAD molecule in each subunit"}]}
